In ChEMBL document CHEMBL3407385, “Promiscuous 2-aminothiazoles (PrATs): a frequent hitting scaffold” (J Med Chem, 2015) one finds Activity data, which are given here for four molecules.

Calls of active or inactive are those of the source. The calls are words filed in the database; no cut-off is given here.

Test [1] in a line: Binding affinity to oxidoreductase 1 (unknown origin) at 1 mM by HSQC-NMR analysis.
Test [2] in a line: Binding affinity to oxidoreductase 1 (unknown origin) by STD-NMR analysis.
Test [3] has as its target T1, SPRY domain-containing SOCS box protein 2 (Homo sapiens) (UniProt Q99619).
T1 sequence (whole entry): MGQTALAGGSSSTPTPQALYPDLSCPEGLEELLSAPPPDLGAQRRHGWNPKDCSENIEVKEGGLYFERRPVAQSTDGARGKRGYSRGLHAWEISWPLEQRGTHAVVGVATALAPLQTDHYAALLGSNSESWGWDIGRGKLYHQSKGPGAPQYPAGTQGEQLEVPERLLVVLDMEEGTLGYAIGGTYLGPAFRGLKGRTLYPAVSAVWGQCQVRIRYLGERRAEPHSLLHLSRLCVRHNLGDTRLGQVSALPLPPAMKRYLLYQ
The test can be described thus: Binding affinity to SPSB2 (unknown origin) at 3mM by 19F NMR method.

Test [4] can be described thus: Binding affinity to oxidoreductase 1 (unknown origin) at 1.5 mM by HSQC-NMR analysis.

Regarding `Cc1sc(N)nc1-c1ccccc1`, the result in test [1] was Active.

In the case of `Nc1nc(-c2ccccc2)cs1`, the outcome in test [1], in test [2] and in test [3] was Active.

As for `COc1ccc(-c2nc(N)sc2C)cc1`, in test [1], the outcome was Active.

For `Nc1nc2cc3c(cc2s1)OCCO3`, the result in test [4] was Active.
